ChEMBL document CHEMBL4002643, “Tubulin-binding dibenz[c,e]oxepines: Part 2. Structural variation and biological evaluation as tumour vasculature disrupting agents” (Bioorg Med Chem, 2017)
Activity calls are given as the source filed them. No cut-off for these calls is given here.

Assays:
[1] = test system: HOP-92; test: Cytotoxicity against human HOP92 cells assessed as growth inhibition after 48 hrs by SRB assay; assay type: functional; conditions: HOP-92, 48 h
[2] = test system: TK-10; test: Cytotoxicity against human TK10 cells assessed as growth inhibition after 48 hrs by SRB assay; assay type: functional; conditions: TK-10, 48 h
[3] = test system: HCT-116; test: Cytotoxicity against human HCT116 cells assessed as growth inhibition after 48 hrs by SRB assay; assay type: functional; conditions: HCT-116, 48 h
[4] = test system: Mus musculus; test: Toxicity in human Calu6 cells xenografted nu/nu CBA mouse assessed as change in body weight at 67.5 to 135 mg/kg, ip administered on day 1 and 5 measured daily over 12 days; assay type: organism-based; conditions: in vivo, 288 h
[5] = test system: Calu-6; test: Antitumor activity against human Calu6 cells xenografted in nu/nu CBA mouse assessed as tumor growth inhibition at 67.5 to 135 mg/kg, ip administered on day 1 and 5 measured on day 2 and 6 post dose; assay type: functional, organism-based
[6] = test system: NCI/ADR-RES; test: Cytotoxicity against human NCI-ADR-RES cells assessed as growth inhibition after 48 hrs by SRB assay; assay type: functional
[7] = test system: A549; test: Cytotoxicity against human A549 cells assessed as growth inhibition after 48 hrs by SRB assay; assay type: functional; conditions: A549, 48 h
[8] = test system: SR; test: Cytotoxicity against human SR cells assessed as growth inhibition after 48 hrs by SRB assay; assay type: functional
[9] = test system: MOLT-4; test: Cytotoxicity against human MOLT4 cells assessed as growth inhibition after 48 hrs by SRB assay; assay type: functional; conditions: MOLT-4, 48 h
[10] = test system: MDA-MB-231; test: Cytotoxicity against human MDA-MB-231 cells assessed as growth inhibition after 48 hrs by SRB assay; assay type: functional; conditions: MDA-MB-231, 48 h
[11] = test system: SNB-19; test: Cytotoxicity against human SNB19 cells assessed as growth inhibition after 48 hrs by SRB assay; assay type: functional; conditions: SNB-19, 48 h
[12] = test system: RXF 393; test: Cytotoxicity against human RXF393 cells assessed as growth inhibition after 48 hrs by SRB assay; assay type: functional; conditions: RXF 393, 48 h
[13] = test system: K562; test: Cytotoxicity against human K562 cells assessed as growth inhibition after 48 hrs by SRB assay; assay type: functional; conditions: K562, 48 h
[14] = test system: Calu-6; test: Antitumor activity against human Calu6 cells xenografted in nu/nu CBA mouse assessed as tumor growth inhibition at 67.5 to 135 mg/kg, ip administered on day 1 and 5 measured on day 3 to 4 and day 7 to 16 post dose; assay type: functional, organism-based
[15] = test system: Malme-3M; test: Cytotoxicity against human MALME-3M cells assessed as growth inhibition after 48 hrs by SRB assay; assay type: functional
[16] = test system: EKVX; test: Cytotoxicity against human EKVX cells assessed as growth inhibition after 48 hrs by SRB assay; assay type: functional
[17] = test system: DLD-1; test: Induction of vascular shutdown in human DLD1 cells xenografted in Balb/C immunodeficient nude mouse assessed as vascular element counts at 400 mg/kg, iv at 4 hrs post dose by […] dye-based microscopic method (reference value: 3.73 +/- 3.1%); assay type: functional
[18] = test system: DLD-1; test: Induction of vascular shutdown in human DLD1 cells xenografted in Balb/C immunodeficient nude mouse assessed as vascular element counts at 400 mg/kg, iv at 1 hr post dose by […] dye-based microscopic method (reference value: 3.73 +/- 3.1%); assay type: functional
[19] = test system: DLD-1; test: Induction of vascular shutdown in human DLD1 cells xenografted in Balb/C immunodeficient nude mouse at 400 mg/kg, iv by […] dye-based microscopic method; assay type: functional, organism-based; conditions: TDE = time-dependent effect
[20] = test system: Mus musculus; test: Toxicity in human DLD1 cells xenografted Balb/C immunodeficient nude mouse assessed as body weight loss at 200 to 400 mg/kg, iv administered day 2 and 4 measured 14 days post dose; assay type: organism-based; conditions: in vivo, 336 h
[21] = test system: DLD-1; test: Vascular disrupting activity in human DLD1 cells xenografted in Balb/C immunodeficient nude mouse assessed as induction of necrosis by measuring necrotic area at 400 mg/kg, iv at 1 hr post dose by haematoxylin and eosin staining-based assay (reference value: 19 +/- 9.6%); assay type: functional
[22] = test system: DLD-1; test: Induction of vascular shutdown in human DLD1 cells xenografted in Balb/C immunodeficient nude mouse assessed as vascular element counts at 400 mg/kg, iv at 24 hrs post dose by […] dye-based microscopic method (reference value: 3.73 +/- 3.1%); assay type: functional
[23] = test system: DLD-1; test: Vascular disrupting activity in human DLD1 cells xenografted in Balb/C immunodeficient nude mouse assessed as induction of necrosis by measuring necrotic area at 400 mg/kg, iv at 24 hrs post dose by haematoxylin and eosin staining-based assay (reference value: 19 +/- 9.6%); assay type: functional
[24] = test system: DLD-1; test: Vascular disrupting activity in human DLD1 cells xenografted in Balb/C immunodeficient nude mouse assessed as induction of necrosis by measuring necrotic area at 400 mg/kg, iv at 4 hrs post dose by haematoxylin and eosin staining-based assay (reference value: 19 +/- 9.6%); assay type: functional

COc1ccc2c(c1O)COCc1cc(OC)c(OC)c(OC)c1-2
GI50 [1]: 590 nM
GI50 [2]: > 100000 nM
GI50 [3]: 320 nM
Activity [4]: Non-Toxic
TGI [5]: Active
GI50 [6]: 50 nM
GI50 [7]: 350 nM
GI50 [8]: 40 nM
GI50 [9]: 60 nM
GI50 [10]: 270 nM
GI50 [11]: 140 nM
GI50 [12]: 40 nM
GI50 [13]: 40 nM
TGI [14]: inactive

COc1ccc2c(c1)COCc1cc(OC)c(OC)c(OC)c1-2
GI50 [15]: > 100000 nM
GI50 [1]: > 100000 nM
GI50 [2]: > 100000 nM
GI50 [3]: 50 nM
GI50 [6]: 70 nM
GI50 [7]: 130 nM
GI50 [8]: 40 nM
GI50 [9]: 90 nM
GI50 [16]: 600 nM
GI50 [10]: 590 nM
GI50 [11]: 980 nM
GI50 [12]: 80 nM
GI50 [13]: 40 nM

COc1ccc2c(c1OP(=O)([O-])[O-])COCc1cc(OC)c(OC)c(OC)c1-2.[Na+].[Na+]
Activity [17]: 1.96%
Activity [18]: 0.33%
Activity [19]: Tde
Activity [20]: Non-Toxic
GI50 [15]: 2510 nM
Activity [21]: 27.1%
GI50 [3]: 430 nM
GI50 [6]: 280 nM
GI50 [7]: 420 nM
GI50 [8]: 190 nM
GI50 [9]: 400 nM
GI50 [16]: 680 nM
GI50 [10]: 710 nM
GI50 [11]: 510 nM
GI50 [12]: 210 nM
Activity [22]: 0.95%
GI50 [13]: 280 nM
Activity [23]: 74.1%
Activity [24]: 26%
